According to patent publication US4808584A, “Quinolinecarboxylic acid derivatives and antibacterial agent containing the same” (Kanebo, Ltd., priority 1987, dated 1989):
≈ marks a conversion by molar mass, not a printed value.

Columns and labels:
[1] = system: bacteria; details: prior art, U.S. Pat. No. 4,382,892; cited from earlier work
[2] = system: methicillin resistant Staphylococcus aureus; test: Minimum inhibitory concentration against clinically isolated methicillin resistant Staphylococcus aureus; type: cell-based
Procedure: The compound (B) was dissolved in sterilized distilled water, and ofloxacin in 0.1N aqueous potassium hydroxide, to prepare a solution of 5000 μg/ml in concentration each. The above solutions were then diluted with sterilized distilled water to prepare a standard solution with a concentration of the test compound: 1000 μg/ml each. The test was carried out by a method approved by Japan Society of Chemotherapy (ibidem) to measure minimum inhibitory concentration (MIC) against 54 strains of clinically isolated methicillin resistant Staphylococcus aureus, from which there were calculated a range of MIC (MICrange) of the test compound against these resistant strains, a minimum concentration for inhibiting the growth of the strains by 50% (MIC50) and a minimum concentration for inhibiting the growth of the strains by 90% (MIC90).

[3] = system: Escherichia coli KC-14; test: Minimum inhibitory concentration (MIC); type: cell-based; details: KC14; Escherichia coli KC-14, Gram -
Procedure: (§1) The compounds of the present invention (A, C, E, F, G, H and I) and ofloxacin as control were dissolved in 0.1N aqueous potassium hydroxide to prepare a solution of 5000 μg/ml in concentration. The compounds of the present invention (B, D and J) were dissolved in sterilized distilled water to prepare a solution of 5000 μg/ml in concentration. Each solution was diluted with sterilized distilled water to prepare a standard solution with a concentration of each test compound: 1000 μg/ml. The test was carried out by a method approved by Japan Society of Chemotherapy [cf. Chemotherapy, 29, 76-79 (1981)(TOKYO)].

[4] = system: Serratia marcescens IAM 1184; test: Minimum inhibitory concentration (MIC); type: cell-based; details: Serratia marcescens, IAM1184, Serratia marcescens IAM 1184, Gram -
Procedure: as §1

[5] = system: Proteus mirabilis IFO 3849; test: Minimum inhibitory concentration (MIC); type: cell-based; details: IFO3849; Proteus mirabilis IFO 3849, Gram -
Procedure: as §1

[6] = system: Morganella morganii IFO 3848; test: Minimum inhibitory concentration (MIC); type: cell-based; details: IFO3848; Morganella morganii IFO 3848, Gram -
Procedure: as §1

[7] = system: Shigella sonnei EW-33; test: Minimum inhibitory concentration (MIC); type: cell-based; details: EW33; Shigella sonnei EW-33, Gram -
Procedure: as §1

[8] = system: Micrococcus luteus ATCC 9341; test: Minimum inhibitory concentration (MIC); type: cell-based; details: ATCC9341; Micrococcus luteus ATCC 9341, Gram +
Procedure: as §1

[9] = system: Proteus vulgaris OX-19; test: Minimum inhibitory concentration (MIC); type: cell-based; details: OX19; Proteus vulgaris OX-19, Gram -; read-out: Minimum inhibitory concentration (MIC)
Procedure: as §1

[10] = system: Salmonella typhimurium IID 971; test: Minimum inhibitory concentration (MIC); type: cell-based; details: Salmonella enterica, Salmonella typhimurium IID 971, Gram -; read-out: Minimum inhibitory concentration (MIC)
Procedure: as §1

[11] = system: Citrobacter freundii NIHJ 10018-68; test: Minimum inhibitory concentration (MIC); type: cell-based; details: NIHJ10018; Citrobacter freundii NIHJ 10018-68, Gram -
Procedure: as §1

[12] = system: Pseudomonas aeruginosa IFO 3445; test: Minimum inhibitory concentration (MIC); type: cell-based; details: Pseudomonas aeruginosa, IFO3445, Pseudomonas aeruginosa IFO 3445, Gram -
Procedure: as §1

[13] = system: Escherichia coli KC-14; test: Effect on treatment of general infectious disease; type: in vivo, ddY male mice; details: KC14, 168 h, E. coli KC-14, 1.2×10^4 CFU/mouse i.p., oral one hour after infection, survival after one week
Procedure: Escherichia coli KC-14 (1.2×10^4 CFU/mouse)
(§2) The test microorganisms were subjected to standing culture in Trypto-Soya Agar "Nissui" (made by Nissui Seiyaku K.K., Japan) at 37° C. for 16 to 18 hours. The culture was then diluted with PBS (Dulbecco's phosphate buffered saline) and mixed with an equivalent amount of 10% (w/v) Mucin (BACTO MUCIN BACTERIOLOGICAL, made by Difco Co.) to prepare a microorganism solution. The thus prepared microorganism solution (0.5 ml each) was intraperitoneally innoculated to ddY male mice (4 weeks age, weighing 20-22 g, 5 mice in each group), to infect the animals. One hour after the infection, the compound (B) of the present invention dissolved in sterilized distilled water or ofloxacin suspended in 0.5% (w/v) aqueous sodium carboxymethyl cellulose solution was orally adiministered to mice.
(§3) The mice were daily observed for one week, and from the survival number of mice after one week, the 50% effective dose (ED50) was calculated by Weil method.

[14] = system: E. coli KC-14; test: Effect on treatment of infectiousness of the genito-urinary tract; type: in vivo, ICR female mice; details: Escherichia coli, KC14, 48 h; E. coli KC-14, 5.6×10^5 CFU/mouse into urinary bladder; oral; not more than 10^4 living bacteria/1 g of kidney regarded as effective
Procedure: 2. Test microorganism and inoculum size E. coli KC-14 (5.6×10^5 CFU/mouse) 3. Method:
A microorganism solution (0.1 ml) prepared in the same manner as described in Experiment 3 was introduced into urinary bladder through urinary tract of ICR female mice (5 weeks age, weighing 20 to 22 g, 5 mice in each group), and then urinary meatus was clasped with clip for 4 hours to infect the animals. After taking off the clip, the compound (B) of the present invention dissolved in sterilized distilled water or ofloxacin suspended in 0.5% aqueous sodium carboxymethyl cellulose solution was orally administered to mice. Two days after the infection, mice kidneys were taken out and weighed, to which PBS (Dulbecco's phosphate buffered saline) was added and the mixture was homogenized. The homogenate was then diluted with PBS and inoculated onto a plate of modified Drigalski Agar (BTB lactose agar "Nissui", made by Nissui Seiyaku K.K., Japan) and cultured at 37° C. for 18 hours. The number of the colonies of infectious bacteria grown on the plate was counted. The number of living bacteria per 1 g of kidney was calculated from the number of colonies and the kidney weight. The living bacteria number/1 g of kidney of not more than 10^4 was regarded as effective and an effective dose for 50% mice (ED50) was calculated by Weil method.

[15] = system: Staphylococcus aureus IID 803; test: Effect on treatment of general infectious disease; type: in vivo, ddY male mice; details: IID803, 168 h, S. aureus IID 803, 1.0×10^6 CFU/mouse i.p., oral one hour after infection, survival after one week
Procedure: Staphylococcus aureus IID 803 (1.0×10^6 CFU/mouse)
as §2, §3

[16] = system: Pseudomonas aeruginosa E-2; test: Effect on treatment of general infectious disease; type: in vivo, ddY male mice; details: E2, 168 h, P. aeruginosa E-2, 1.6×10^4 CFU/mouse i.p., oral one hour after infection, survival after one week
Procedure: Pseudomonas aeruginosa E-2 (1.6×10^4 CFU/mouse)
as §2, §3

CC1COc2c(N3CCN(C)CC3)c(F)cc3c(=O)c(C(=O)O)cn1c23 (racemic) [Ofloxacin, reference compound]
antibacterial activity (in words) [1]: excellent antibacterial activity
MIC ([2]; 54 strains of clinically isolated methicillin resistant Staphylococcus aureus): 0.39 to 1.56 µg/mL (≈ 1.08 to 4.32 µM)
MIC50 ([2]; Staphylococcus aureus, minimum concentration for inhibiting the growth of the strains by 50%, 54 strains): 0.39 µg/mL (≈ 1.08 µM)
MIC90 ([2]; Staphylococcus aureus, minimum concentration for inhibiting the growth of the strains by 90%, 54 strains): 1.56 µg/mL (≈ 4.32 µM)
MIC [3]: 0.1 µg/mL (≈ 0.277 µM)
MIC [4]: 0.78 µg/mL (≈ 2.16 µM)
MIC [5]: 0.39 µg/mL (≈ 1.08 µM)
MIC [6]: 0.1 µg/mL (≈ 0.277 µM)
MIC [7]: 0.05 µg/mL (≈ 0.138 µM)
MIC [8]: 3.13 µg/mL
MIC [9]: 0.05 µg/mL (≈ 0.138 µM)
MIC [10]: 0.05 µg/mL (≈ 0.138 µM)
MIC [11]: 0.39 µg/mL (≈ 1.08 µM)
MIC [12]: 1.56 µg/mL (≈ 4.32 µM)
ED50 [13]: 1.1 mg/kg
ED50 [14]: 50 mg/kg
ED50 [15]: 11.5 mg/kg
ED50 [16]: 22.9 mg/kg
